From DBAASP
In brackets after ≈: the same amount, converted by molar mass.

Tests used:
Assay in all cases: ≥ marks a high value that may be exact or a test limit, other limits are often not marked, values filed in µg/mL are converted to µM
[1] = tested on: Neisseria gonorrhoeae F62
[2] = tested on: Neisseria gonorrhoeae FA19
[3] = tested on: Bacillus subtilis KCTC 3068
[4] = tested on: Bacillus subtilis KCTC 1022
[5] = tested on: Staphylococcus aureus KCTC 1621
[6] = tested on: Pseudomonas aeruginosa KCTC 1637
[7] = tested on: Pseudomonas aeruginosa KCTC 2004
[8] = tested on: Pseudomonas aeruginosa KCTC 2513
[9] = tested on: Salmonella typhimurium KCTC 1926
[10] = tested on: Staphylococcus aureus KCTC 1916
[11] = tested on: Escherichia coli KCTC 2571
[12] = tested on: Staphylococcus epidermidis KCTC 1917
[13] = tested on: Escherichia coli KCTC 1682
[14] = tested on: Escherichia coli KCTC 2593
[15] = tested on: Bacillus subtilis KCTC 1021
[16] = tested on: Staphylococcus aureus KCTC 3881
Escherichia coli BL21AI = tested on: Escherichia coli BL21AI
[17] = tested on: Micrococcus luteus ATCC 10240

SMILES | MIC [1] | MIC [2] | MIC [3] | MIC [4] | MIC [5] | MIC [6] | MIC [7] | MIC [8] | MIC [9] | MIC [10] | MIC [11] | MIC [12] | MIC [13] | MIC [14] | MIC [15] | MIC [16] | MIC (Escherichia coli BL21AI) | MIC [17]
CC(C)C[C@H](N)C(=O)N[C@H]1CSSC[C@@H](C(=O)N[C@H](C(N)=O)C(C)C)NC(=O)[C@H](C(C)C)NC(=O)[C@H](C)NC(=O)[C@H](Cc2ccccc2)NC(=O)[C@H](CCCN=C(N)N)NC(=O)[C@H](CCCN=C(N)N)NC(=O)[C@H](CCCN=C(N)N)NC(=O)[C@H](C)NC(=O)[C@H](Cc2ccc(O)cc2)NC1=O [LCYARRRFAVCV] | 1.1 µM (≈ 1.6 µg/mL) | 7.65 µM (≈ 11.1 µg/mL) | – | – | – | – | – | – | – | – | – | – | – | – | – | – | – | –
CC[C@H](C)[C@H](NC(=O)CNC(=O)[C@H](CCCN=C(N)N)NC(=O)[C@H](Cc1c[nH]c2ccccc12)NC(=O)[C@@H](NC(=O)[C@H](Cc1cnc[nH]1)NC(=O)[C@H](Cc1cnc[nH]1)NC(=O)[C@H](Cc1ccccc1)NC(=O)[C@@H](N)Cc1ccccc1)[C@@H](C)CC)C(=O)N[C@H](C(=O)N[C@@H](Cc1cnc[nH]1)C(=O)N[C@H](C(=O)NCC(=O)N[C@@H](CCCCN)C(=O)N[C@H](C(=O)N[C@H](C(=O)N[C@@H](Cc1cnc[nH]1)C(=O)N[C@@H](CCCN=C(N)N)C(=O)N[C@@H](CC(C)C)C(=O)N[C@H](C(=O)N[C@H](C(=O)NCC(=O)O)[C@@H](C)O)C(C)C)[C@@H](C)CC)[C@@H](C)O)C(C)C)C(C)C [FFHHIWRGIVHVGKTIHRLVTG] | – | – | 4 µM (≈ 10.4 µg/mL) | 4 µM (≈ 10.4 µg/mL) | 2 µM (≈ 5.22 µg/mL) | 4 µM (≈ 10.4 µg/mL) | 4 µM (≈ 10.4 µg/mL) | 4 µM (≈ 10.4 µg/mL) | 4 µM (≈ 10.4 µg/mL) | 2 µM (≈ 5.22 µg/mL) | 2 µM (≈ 5.22 µg/mL) | 2 µM (≈ 5.22 µg/mL) | 2 µM (≈ 5.22 µg/mL) | 2 µM (≈ 5.22 µg/mL) | 4 µM (≈ 10.4 µg/mL) | 2 µM (≈ 5.22 µg/mL) | – | –
CC[C@H](C)[C@H](NC(=O)[C@H](Cc1ccc(O)cc1)NC(=O)[C@@H](NC(=O)[C@@H]1CCCN1C(=O)[C@H](CCCN=C(N)N)NC(=O)[C@H](CC(N)=O)NC(=O)[C@H](CC(N)=O)NC(=O)CN)C(C)C)C(=O)N1CCC[C@H]1C(=O)N[C@@H](CCCN=C(N)N)C(=O)N1CCC[C@H]1C(=O)N[C@@H](CCCN=C(N)N)C(=O)N1CCC[C@H]1C(=O)N1CCC[C@H]1C(=O)N[C@@H](Cc1cnc[nH]1)C(=O)N1CCC[C@H]1C(=O)N[C@@H](CCCN=C(N)N)C(=O)N[C@@H](CC(C)C)C(=O)N[C@H](C(=O)O)C(C)C [GNNRPVYIPRPRPPHPRLV] | – | – | – | – | – | – | – | – | – | – | – | – | – | – | – | – | 3.49 µM (≈ 7.81 µg/mL) | 0.107 µM (≈ 0.24 µg/mL)
CC[C@H](C)[C@H](NC(=O)CNC(=O)[C@H](CCCN=C(N)N)NC(=O)[C@H](Cc1ccccc1)NC(=O)[C@@H](NC(=O)[C@H](Cc1cnc[nH]1)NC(=O)[C@H](Cc1cnc[nH]1)NC(=O)[C@H](Cc1c[nH]c2ccccc12)NC(=O)[C@@H](N)Cc1ccccc1)[C@@H](C)CC)C(=O)N[C@H](C(=O)N[C@@H](Cc1cnc[nH]1)C(=O)N[C@H](C(=O)NCC(=O)N[C@@H](CCCCN)C(=O)N[C@H](C(=O)N[C@H](C(=O)N[C@@H](Cc1cnc[nH]1)C(=O)N[C@@H](CCCN=C(N)N)C(=O)N[C@@H](CC(C)C)C(=O)N[C@H](C(=O)N[C@H](C(=O)NCC(=O)O)[C@@H](C)O)C(C)C)[C@@H](C)CC)[C@@H](C)O)C(C)C)C(C)C [FWHHIFRGIVHVGKTIHRLVTG] | – | – | 2 µM (≈ 5.22 µg/mL) | 2 µM (≈ 5.22 µg/mL) | 2 µM (≈ 5.22 µg/mL) | 4 µM (≈ 10.4 µg/mL) | 4 µM (≈ 10.4 µg/mL) | 4 µM (≈ 10.4 µg/mL) | 2 µM (≈ 5.22 µg/mL) | 2 µM (≈ 5.22 µg/mL) | 2 µM (≈ 5.22 µg/mL) | 2 µM (≈ 5.22 µg/mL) | 2 µM (≈ 5.22 µg/mL) | 2 µM (≈ 5.22 µg/mL) | 2 µM (≈ 5.22 µg/mL) | 2 µM (≈ 5.22 µg/mL) | – | –
CC(C)C[C@H](NC(=O)[C@H](CCCNC(=N)N)NC(=O)CNC(=O)CNC(=O)[C@@H](N)CCCNC(=N)N)C(=O)N[C@@H](C)C(=O)N[C@@H](Cc1ccc(O)cc1)C(=O)N[C@@H](C)C(=O)N[C@@H](CCCNC(=N)N)C(=O)N[C@@H](CCCNC(=N)N)C(=O)N[C@@H](CCCNC(=N)N)C(=O)N[C@@H](Cc1ccccc1)C(=O)N[C@@H](C)C(=O)N[C@H](C(=O)N[C@@H](C)C(=O)N[C@H](C(=O)NCC(=O)N[C@@H](CCCNC(=N)N)C(N)=O)C(C)C)C(C)C [RGGRLAYARRRFAVAVGR] | 10 µM (≈ 20.3 µg/mL) | ≥ 224 µM | – | – | – | – | – | – | – | – | – | – | – | – | – | – | – | –
